Measured values published in PMC10333285, “Structural basis of ligand activation and inhibition in a mammalian TRPV4 ion channel” (Cell Discovery, 2023).

What was measured:
TRPV4 (mTRPV4) [1] = biological target: TRPV4 (mTRPV4) (Mus musculus, UniProt Q9EPK8); test: cryo-EM structure with GSK101 also bound ([…] Å); patch-clamp inhibition IC50; type: cell-based
TRPV4 (mTRPV4) [2] = biological target: TRPV4 (mTRPV4) (Mus musculus, UniProt Q9EPK8, D682A); test: patch-clamp inhibition of GSK101-activated mutant channel; type: cell-based
TRPV4 (mTRPV4) (Mus musculus, UniProt Q9EPK8, D682A), sequence (Q9EPK8 whole entry D682A): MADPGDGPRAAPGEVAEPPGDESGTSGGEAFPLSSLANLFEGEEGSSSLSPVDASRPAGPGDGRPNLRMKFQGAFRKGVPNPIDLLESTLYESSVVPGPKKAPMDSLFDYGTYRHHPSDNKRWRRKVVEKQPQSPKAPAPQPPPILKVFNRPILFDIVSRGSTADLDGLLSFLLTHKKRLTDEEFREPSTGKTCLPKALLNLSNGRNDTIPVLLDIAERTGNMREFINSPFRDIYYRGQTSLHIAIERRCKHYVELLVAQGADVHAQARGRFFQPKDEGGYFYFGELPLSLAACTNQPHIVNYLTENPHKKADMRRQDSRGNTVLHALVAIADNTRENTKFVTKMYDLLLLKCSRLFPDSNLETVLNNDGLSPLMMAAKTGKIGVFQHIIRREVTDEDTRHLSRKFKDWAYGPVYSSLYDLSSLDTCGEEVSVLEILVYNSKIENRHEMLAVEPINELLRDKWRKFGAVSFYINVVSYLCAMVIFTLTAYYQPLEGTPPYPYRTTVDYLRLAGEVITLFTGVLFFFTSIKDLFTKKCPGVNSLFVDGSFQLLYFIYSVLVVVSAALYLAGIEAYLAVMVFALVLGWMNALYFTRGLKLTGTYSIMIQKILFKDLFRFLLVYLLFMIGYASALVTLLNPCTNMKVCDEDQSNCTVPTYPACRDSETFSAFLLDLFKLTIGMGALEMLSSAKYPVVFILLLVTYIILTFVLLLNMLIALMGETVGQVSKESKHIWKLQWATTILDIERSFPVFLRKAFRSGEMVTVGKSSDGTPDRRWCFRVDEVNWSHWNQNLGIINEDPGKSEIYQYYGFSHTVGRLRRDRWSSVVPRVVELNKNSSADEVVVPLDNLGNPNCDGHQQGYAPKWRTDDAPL

TRPV4 (mTRPV4) (Mus musculus, UniProt Q9EPK8), sequence (Q9EPK8 whole entry): as the sequence (Q9EPK8 whole entry D682A) above, with A682D counted along it

Compound: Cl.Cl.Cl.Cl.Cl.Cl.N.N.N.N.N.N.N.N.N.N.N.N.N.N.[O-2].[O-2].[Ru+3].[Ru+3].[Ru+4] [ruthenium red]
- IC50 (TRPV4 (mTRPV4) [1]): 0.3 ± 0.1 µM
- IC50 (TRPV4 (mTRPV4) [2]): 15.6 ± 3.2 µM
